This assay addresses Human GLP-1R (Homo sapiens, UniProt P43220). Description: GLP-1R agonist activity, HTRF cAMP detection in 293A GFP-GLP-1R cells. On the set-up: Emax: dose or concentration left out as unconfirmed. The settings on record: for Emax: 293A. In general terms: Time-resolved FRET reads energy transfer from a long-lived donor to a nearby acceptor.
Where [1] appears, read: cAMP level, 293A GFP-GLP-1R cells, 30 min incubation, geometric mean.

Each structure is given as a SMILES string. Like-named read-outs stand apart in the source and are kept apart here. Some results are limits rather than exact numbers.

The source of these data is patent publication US12668587B2, “Benzimidazolone GLP-1 receptor agonist and use thereof” (HANGZHOU ZHONGMEIHUADONG PHARMACEUTICAL CO., LTD., priority 2020, dated 2026).

Sequence of Human GLP-1R (P43220 24-463): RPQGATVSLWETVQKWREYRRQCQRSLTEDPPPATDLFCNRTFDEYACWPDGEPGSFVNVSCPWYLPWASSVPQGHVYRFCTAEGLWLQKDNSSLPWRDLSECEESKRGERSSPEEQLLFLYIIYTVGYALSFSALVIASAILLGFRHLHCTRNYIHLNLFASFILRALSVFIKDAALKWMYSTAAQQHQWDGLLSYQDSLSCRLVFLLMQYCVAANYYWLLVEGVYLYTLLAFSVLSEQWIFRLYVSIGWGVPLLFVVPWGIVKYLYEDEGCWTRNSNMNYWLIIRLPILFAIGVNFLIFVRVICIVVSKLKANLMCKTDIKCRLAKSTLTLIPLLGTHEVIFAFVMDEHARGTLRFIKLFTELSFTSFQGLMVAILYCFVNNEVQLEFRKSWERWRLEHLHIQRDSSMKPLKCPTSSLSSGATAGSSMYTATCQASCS
Protocol: GLP-1R-mediated agonist activity was determined by cell-based assays using a homogeneous time-resolved fluorescence (i.e., HTRF)-based cAMP detection kit, which measures the level of cAMP in cells. The method was a competitive immunoassay. It enabled direct pharmacological characterization of compounds acting on Gs-coupled receptors in adherent or suspending cells.
The standard curve of native cAMP or unlabeled cAMP produced by cells competed with d2-labeled cAMP red receptors to bind monoclonal anti-cAMP Eu3+ cryptate donors, and the specific signal was inversely proportional to the concentration of cAMP in standard or tested samples.
Human GLP-1R encoding sequence (NCBI reference sequence NP_002053.3) was subcloned into pEGFP-N1 (tsingke), and the cell line stably expressing the receptor was isolated. The expression density of GLP-1R was confirmed by the expression of GFP observed under a fluorescence microscope.
Cells were collected from a T25 tissue culture flask and centrifuged at room temperature at 1000 rpm for 5 minutes. The cell precipitates were then re-suspended in 1 mL of the stimulating buffer. 20 μL sample of cell suspension was counted on a counter STAR IC 1000 to determine the cell viability and the cell count per mL. The remaining cell suspension was then regulated with the stimulating buffer to deliver 2000 living cells per well using a multi-channel pipette. 5 μL of the cell suspension was added to each well of the plate which already contained the compound. The plate was sealed and incubated at 37° C. with 5% CO2 for 30 minutes.
After 30 minutes of incubation, 5 μL of d2-labeled cAMP and 5 μL of anti-cAMP cryptate (both 1: 20 diluted in the cell lysis buffer) were added to each well of the plate. The plate was then incubated at room temperature for 60 minutes, and the changes of HTRF signal were read with Tecan Spark reader: absorbance values at 340 nm (excitation)/at 615 nm and 665 nm (emission). Raw data were converted into nM cAMP by interpolation from the cAMP standard curve, and the effect in percentage was determined relative to the saturated concentration of the complete agonist GLP-17˜37 (400 nM) contained in each plate. Determination of EC50 was performed based on the agonist dose-response curve, which was analyzed using a four-parameter logical dose-response equation with a curve fitting program.
The test data presented the results in the form of a geometric mean (EC50s) based on the number of repetition times.

`CC(=O)c1ccc(COc2cccc(C3CCN(Cc4nc5ccc(C(=O)O)cc5n4C[C@@H]4CCO4)CC3)n2)c(C)c1` [Compound 10, (S)-2-((4-(6-((4-acetyl-2-methylbenzyl)oxy)pyridin-2-yl)piperidin-1-yl)methyl)-1-(oxetan-2-ylmethyl)-1H-benzo[d]imidazole-6-carboxylic acid] showed an EC50 of 1.67 nM and an Emax of 125%.

`CN(C)C(=O)c1ccc(COc2cccc(C3CCN(Cc4nc5ccc(C(=O)O)cc5n4C[C@@H]4CCO4)CC3)n2)c(F)c1` [Compound 24, (S)-2-((4-(6-((4-(dimethylcarbamoyl)-2-fluorobenzyl)oxy)pyridin-2-yl)piperidin-1-yl)methyl)-1-(oxetan-2-ylmethyl)-1H-benzo[d]imidazole-6-carboxylic acid] came in with an EC50 above 1000 nM and an Emax of 25.8%.

On to `O=C(O)c1ccc2nc(Cc3ccc(-c4cccc(OCc5ccc(C(=O)C6CC6)cc5F)n4)cc3F)n(C[C@@H]3CCO3)c2c1` [Compound 46], for which a half-maximal response (EC50) required 0.02 nM.

In turn, `O=C(O)c1ccc2nc(CC3CCN(c4cccc(OCc5ccc(C(=O)C6CC6)cc5F)n4)CC3)n(C[C@@H]3CCO3)c2c1` [Compound 42, (S)-2-((1-(6-((4-(cyclopropanecarbonyl)-2-fluorobenzyl)oxy)pyridin-2-yl)piperidin-4-yl)methyl)-1-(oxetan-2-ylmethyl)-1H-benzo[d]imidazole-6-carboxylic acid] yielded an EC50 of 0.23 nM.

On to `CC(=O)c1cc(F)c(COc2cccc(C3CCN(Cc4nc5ccc(C(=O)O)cc5n4C[C@@H]4CCO4)CC3)n2)c(F)c1` [Compound 13, (S)-2-((4-(6-((4-acetyl-2,6-difluorobenzyl)oxy)pyridin-2-yl)piperidin-1-yl)methyl)-1-(oxetan-2-ylmethyl)-1H-benzo[d]imidazole-6-carboxylic acid], for which it took 40 nM to reach a half-maximal effect (EC50) and the Emax was determined as 88.5%.

Regarding `CS(=O)(=O)c1ccc(COc2cccc(C3CCN(Cc4nc5ccc(C(=O)O)cc5n4C[C@@H]4CCO4)CC3)n2)c(F)c1` [Compound 2, (S)-2-((4-(6-((2-fluoro-4-(methylsulfonyl)benzyl)oxy)pyridin-2-yl)piperidin-1-yl)methyl)-1-(oxetan-2-methyl)-1H-benzo[d]imidazole-6-carboxylic acid], the EC50 is above 1000 nM and the Emax was found to be 29.8%.

`C[C@H]1CN(c2cccc(OCc3ccc(C(=O)C4CC4)cc3F)n2)CCN1Cc1nc2ccc(C(=O)O)cc2n1C[C@@H]1CCO1` [Compound 39, 2-(((S)-4-(6-((4-(cyclopropanecarbonyl)-2-fluorobenzyl)oxy)pyridin-2-yl)-2-methylpiperazin-1-yl)methyl)-1-(((S)-oxetan-2-yl)methyl)-1H-benzo[d]imidazole-6-carboxylic acid] came in with an EC50 of 3.38 nM and an Emax of 87.9%.

The compound `Cc1cc(C(=O)C2CC2)ccc1COc1cccc(C2CCN(Cc3nc4ccc(C(=O)O)nc4n3C[C@@H]3CCO3)CC2)n1` [Compound 40, (S)-2-((4-(6-((4-(cyclopropanecarbonyl)-2-methylbenzyl)oxy)pyridin-2-yl)piperidin-1-yl)methyl)-3-(oxetan-2-ylmethyl)-3H-imidazo[4,5-b]pyridine-5-carboxylic acid] had an EC50 of 0.07 nM and an Emax of 94.7%.

In turn, `N#CCC1(Cn2c(CN3CCC(c4cccc(OCc5ccc(C(=O)C6CC6)cc5F)n4)CC3)nc3ccc(C(=O)O)cc32)CC1` [Compound 45] showed an EC50 of 0.013 nM.

Regarding `O=C(O)c1ccc2nc(CN3CCC(c4cccc(OCc5ccc(C(=O)C6CC6)cc5F)n4)CC3)n(C[C@@H]3CCO3)c2n1` [Compound 33, (S)-2-((4-(6-((4-(cyclopropanecarbonyl)-2-fluorobenzyl)oxy)pyridin-2-yl)piperidin-1-yl)methyl)-3-(oxetan-2-ylmethyl)-3H-imidazo[4,5-b]pyridine-5-carboxylic acid], the midpoint of the response, the EC50, lay at 1.59 nM and the Emax came out at 92.9%.

For `Cc1cc(C(=O)C2CC2)ccc1COc1cccc(N2CCN(Cc3nc4ccc(C(=O)O)cc4n3C[C@@H]3CCO3)[C@@H](C)C2)n1` [Compound 41, 2-(((S)-4-(6-((4-(cyclopropanecarbonyl)-2-methylbenzyl)oxy)pyridin-2-yl)-2-methylpiperazin-1-yl)methyl)-1-(((S)-oxetan-2-yl)methyl)-1H-benzo[d]imidazole-6-carboxylic acid], the EC50 was above 1000 nM and the Emax is 77.3%.

In the case of `O=C(O)c1ccc2nc(CN3CCC(c4cccc(OCc5ccc(C(=O)c6cccnc6)cc5F)n4)CC3)n(C[C@@H]3CCO3)c2c1` [Compound 8, (S)-2-((4-(6-((2-fluoro-4-nicotinoylbenzyl)oxy)pyridin-2-yl)piperidin-1-yl)methyl)-1-(oxetan-2-ylmethyl)-1H-benzo[d]imidazole-6-carboxylic acid], the Emax was 88%. Further, it took 23.7 nM to reach a half-maximal effect under setting [1] (EC50).

`Cc1cc(COc2cccc(C3CCN(Cc4nc5ccc(C(=O)O)cc5n4C[C@@H]4CCO4)CC3)n2)c(F)cc1C(=O)C1CC1` [Compound 38, (S)-2-((4-(6-((4-(cyclopropanecarbonyl)-2-fluoro-5-methylbenzyl)oxy)pyridin-2-yl)piperidin-1-yl)methyl)-1-(oxetan-2-ylmethyl)-1H-benzo[d]imidazole-6-carboxylic acid] had an EC50 above 1000 nM and a maximal effect (Emax) of 85.9%.

Take `CON(C)C(=O)c1ccc(COc2cccc(C3CCN(Cc4nc5ccc(C(=O)O)cc5n4C[C@@H]4CCO4)CC3)n2)c(F)c1` [Compound 15, (S)-2-((4-(6-((2-fluoro-4-(methoxy(methyl)carbamoyl)benzyl)oxy)pyridin-2-yl)piperidin-1-yl)methyl)-1-(oxetan-2-ylmethyl)-1H-benzo[d]imidazole-6-carboxylic acid]: the EC50 is above 1000 nM and the Emax is 13.6%.

On to `O=C(O)c1ccc2nc(CN3CCC(c4cccc(OCc5ccc(C(=O)C6CCOCC6)cc5F)n4)CC3)n(C[C@@H]3CCO3)c2c1` [Compound 19, (S)-2-((4-(6-((2-fluoro-4-(tetrahydro-2H-pyran-4-carbonyl)benzyl)oxy)pyridin-2-yl)piperidin-1-yl)methyl)-1-(oxetan-2-ylmethyl)-1H-benzo[d]imidazole-6-carboxylic acid], for which the Emax amounted to 129%. The compound further showed an EC50 under setting [1] of 145 nM.

Consider `CC(=O)c1ccc(COc2cccc(N3CCN(Cc4nc5ccc(C(=O)O)cc5n4C[C@@H]4CCO4)[C@@H](C)C3)n2)c(F)c1` [Compound 28, 2-(((S)-4-(6-((4-acetyl-2-fluorobenzyl)oxy)pyridin-2-yl)-2-methylpiperazin-1-yl)methyl)-1-(((S)-oxetan-2-yl)methyl)-1H-benzo[d]imidazole-6-carboxylic acid], for which the response was half-maximal at 0.3 nM (EC50) and the Emax turned out to be 95.2%.

For the compound `CC(=O)c1ccc(COc2cccc(C3CCN(Cc4nc5ccc(C(=O)O)cc5n4C[C@@H]4CCO4)CC3)n2)c(OC2CC2)c1` [Compound 31, (S)-2-((4-(6-((4-acetyl-2-cyclopropoxybenzyl)oxy)pyridin-2-yl)piperidin-1-yl)methyl)-1-(oxetan-2-ylmethyl)-1H-benzo[d]imidazole-6-carboxylic acid], the midpoint of the response, the EC50, lay at 18.5 nM and the Emax came out at 75.4%.

The term EC50 denotes the concentration at which the effect is half-maximal. As a reminder, the Emax is the size of the effect at its maximum, as opposed to the concentration needed.
